The subject of experiment [1] is SW 620. Put plainly: MTT cytotoxicity assay, 72 hour incubation. As to conditions: Homo sapiens, SW-620, 3 runs. It counts as cell-based. As to the method:
(§1) The cytotoxicity of compounds 26, 34, 50,58 and 68 were evaluated in a variety of cell lines using the standard MTT assay for a 72 hour incubation period (Table 1).
(§2) Tumor cell lines were maintained in RPMI1640 medium supplemented with 10% heat-inactivated fetal bovine serum, 2 mM L-glutamine and 1 mM sodium pyruvate. 1800 cells per well were seeded in a volume of 180 μl in a 96-well flat bottom polystyrene plate. The cells were allowed to adhere overnight at 37° C. in a CO2 incubator. Ligands were initially formulated in DMSO, and stocks stored at −80° C. They were then further formulated at lox concentration in RPMI1640 medium. 20 ul of diluted samples were added into each treatment well. On each plate, blank wells with no cells, and untreated wells containing cells, were included. Plates were then cultured at 37° C. in a CO2 incubator for 72 hrs. Cytotoxicity was evaluated using a tetrazolium salt-based assay, the MT assay. After 72 hours, the supernatant was removed from each well and 200 μl of a sterile filtered 500 μg/ml MT solution in water added to each well. The plates were then incubated at 37° C. in a CO2 incubator for 4 hrs. The supernatant was then removed and the formazan crystals formed solubilized by adding 150 μl of DMSO to each well. The plate was then read on a plate reader at 540 nm, and percentage cell survival calculated as follows: ((mean absorbance treated wells at concentration x—mean absorbance blank wells)÷(mean absorbance untreated wells at concentration x—mean absorbance blank wells))×100. Data were plotted as concentration in nM vs. % cell survival in Microsoft Excel, and IC50 values (concentration where cell survival is reduced by a half) were determined from the graph.

The test system of experiment [2] is SW48. Briefly: MTT cytotoxicity assay, 72 hour incubation. It counts as cell-based. As to conditions: Homo sapiens, SW48, 3 runs. As to the method: as §1, §2
For orientation: Tetrazolium assays rely on reduction of a dye to a coloured formazan, in cell work by metabolically active cells.

The test system of experiment [3] is SK-BR-3. Put plainly: MTT cytotoxicity assay, 72 hour incubation. As to conditions: Homo sapiens, 3 runs. The experiment is classed as cell-based. How it is done:
as §1, §2

Experiment [4] deals with ZR 75-1. Briefly: MTT cytotoxicity assay, 72 hour incubation. It counts as cell-based. As to conditions: Homo sapiens, 3 runs. As to the method: as §1, §2
Experiment [5] deals with MCF-7. Put plainly: MTT cytotoxicity assay, 72 hour incubation. It counts as cell-based. As to conditions: Homo sapiens, MCF7, 3 runs. How it is done: as §1, §2
For experiment [6], the system named is fluorescently labelled DNA duplexes. Briefly: FRET DNA melting. It counts as binding. As to the method:
FRET DNA Melting FRET DNA melting studies were undertaken on 26 and 34 using a number of fluorescently labelled sequences. The sequences (FIG. 10) were designed to provide additional evidence that 26 and 34 can form inter- and intrastrand cross-links at the site 5′-XYWWYWYX-3′.
The short duplexes used in this FRET study are relatively unstable in the duplex form with a melting temperature below 30° C. so that, in the absence of ligand, a large part of the melting occurs below the starting temperature of the experiment.
Oligonucleotides were obtained from ATDbio (Southampton, UK) in lyophilised form. They were labelled with a fluorophore molecule (F=fluorescein) at the 5′-end and a quencher molecule (Q=dabcyl) at the 3′-end of the complementary strand. Each oligonucleotide was dissolved in distilled H2O to form stock solutions of 100 μM. Working solutions of 5 μM were prepared by diluting the stock solution with distilled H2O.
The following buffers were used: 250 mM phosphate buffer pH 7.4 (consisting of sodium dihydrogen phosphate and sodium phosphate diluted in distilled H2O) and 5 M sodium chloride buffer. All buffers and distilled H2O were filtered through a […] filter prior to use.
The reaction mixture was comprised of 4 μL of 250 mM phosphate buffer (final concentration of 50 mM), 4 μL flourophor and 4 μL quencher molecule of the appropriate oligonucleotide for a final concentration of 0.2 μM, 4 μL 5 M sodium chloride (final concentration of 1 M NaCl), and 4 μL of distilled H2O. This mixture was heated in an Eppendorf tube at 90° C. for 1 min and slowly cooled down to room temperature. This process was carried out to anneal the single strands to double-stranded DNA. Following this, 4 μL of the ligand was added in the desired concentration and the mixture incubated overnight either at room temperature or 4° C. […] This mixture was analysed without prior annealing.
Fluorescence melting profiles were measured using a Roche LightCycler using a total reaction volume of 20 μL. […] Annealing steps and melting steps were all recorded and changes in fluorescence were measured at 520 nm. […]

What is called IC50 is the concentration at which inhibition is half-maximal. Read a high IC50 as weaker potency in that assay.

Take `CNS(=O)(=O)c1ccc(C2=CCN3C(=O)c4cc(OC)c(OCc5cccc(COc6cc7c(cc6OC)C(=O)N6CC=C(c8ccc(S(=O)(=O)NC)cc8)C[C@H]6C=N7)n5)cc4N=C[C@@H]3C2)cc1` [Compound 34, 4,4′-((6aS,6a′S)-((Pyridine-2,6-diylbis(methylene))bis(oxy))bis(2-methoxy-12-oxo-6a,7,10,12-tetrahydrobenzo[e]pyrido[1,2-α][1,4]diazepine-3,8-diyl))bis(N-methylbenzenesulfonamide)]: the IC50 in experiment [1] was 0.325 nM; in experiment [2], 0.0077 nM; in experiment [3], 0.041 nM; in experiment [4] it was 0.159 nM; in experiment [5], 0.057 nM. Further, the “Tm of duplex with ligand” value in experiment [6] (5′-AAAAAAGAGAACAAAAAA-3′ (Seq 23), interstrand cross-link) is about 71 °C; in experiment [6] (AAAAAAGAGAGAAAAAA-3′ (Seq 20), intrastrand cross-link), 66 °C. For the same molecule, the stabilisation of duplex entry in experiment [6] (5′-AAAAAAGATCAAAAAA-3′ (Seq 12), traditional PBD binding site) is “limited stabilisation”.

For the origin of these results see patent US11466032B2, “Cytotoxic agents” (FEMTOGENIX LIMITED, priority 2017, dated 2022).
